Data: patent US8133847B2, “Pyrido[2,3-B]pyrazine derivatives useful as herbicidal compounds” (Syngenta Limited, priority 2006, dated 2012)

Key:
Test in all cases: Example B1 herbicidal action, post-emergence, 96-cell seed trays, climatic chamber
Assay type in all cases: in vivo
Solanum nigrum (SOLNI) = conditions: Application post-emergence, 1000 mg/l spray equivalent to 1000 g/ha, evaluated after 9 days (100=total damage to plant, 0=no damage to plant)
Description: (§1) Seeds of a variety of test species were sown in sterilised standard soil in seed trays each having 96 cells. After cultivation for 8 to 9 days cultivation (post-emergence) under controlled conditions in a climatic chamber (cultivation at 23/17° C., day/night; 13 hours light; 50-60% humidity), the plants were treated with an aqueous spray solution of 1000 mg/l of the active ingredient dissolved in 10% DMSO (dimethyl sulfoxide, CAS RN 67-68-5) as a solvent, equivalent to 1000 g/ha. The plants were grown in the climatic chamber after application at (24/19° C., day/night; 13 hours light; 50-60% humidity) and watered twice daily. After 9 days until the test was evaluated (100=total damage to plant, 0=no damage to plant)

Stellaria media (STEME) = conditions: Application post-emergence, 1000 mg/l spray equivalent to 1000 g/ha, evaluated after 9 days (100=total damage to plant, 0=no damage to plant)
Description: as §1

[1] = test system: Amaranthus retroflexus (AMARE); conditions: Application post-emergence, 1000 mg/l spray equivalent to 1000 g/ha, evaluated after 9 days
Description: as §1

[2] = test system: Nasturtium officinale (NAAOF); set-up: scale not given here; conditions: Application post-emergence, 1000 mg/l spray equivalent to 1000 g/ha, evaluated after 9 days (100=total damage to plant, 0=no damage to plant)
Description: as §1

SMILES: CCC(CC)C(=O)Oc1c(-c2c(F)ccc(F)c2Cl)c(=O)n(C)c2nccnc12 [Compound C89]
- damage to plant, Solanum nigrum (SOLNI) (Solanum nigrum (SOLNI)): 4
- damage to plant, Stellaria media (STEME) (Stellaria media (STEME)): 5
- damage to plant, Amaranthus retroflexus (AMARE) [1]: 5
- damage to plant, Nasturtium officinale (NAAOF) [2]: 5

SMILES: CC(C)C(=O)Oc1c(-c2c(Cl)cccc2C(F)(F)F)c(=O)n(C)c2nccnc12 [Compound C76]
- damage to plant, Solanum nigrum (SOLNI) (Solanum nigrum (SOLNI)): 4
- damage to plant, Stellaria media (STEME) (Stellaria media (STEME)): 6
- damage to plant, Amaranthus retroflexus (AMARE) [1]: 7
- damage to plant, Nasturtium officinale (NAAOF) [2]: 6

SMILES: C/C=C/C(=O)Oc1c(-c2c(Cl)cccc2Cl)c(=O)n(C)c2nccnc12 [Compound C35]
- damage to plant, Solanum nigrum (SOLNI) (Solanum nigrum (SOLNI)): 0
- damage to plant, Stellaria media (STEME) (Stellaria media (STEME)): 7
- damage to plant, Amaranthus retroflexus (AMARE) [1]: 2
- damage to plant, Nasturtium officinale (NAAOF) [2]: 7

SMILES: CCn1c(=O)c(-c2c(F)ccc(F)c2F)c(OC(=O)C(C)(C)C)c2nccnc21 [Compound C59]
- damage to plant, Solanum nigrum (SOLNI) (Solanum nigrum (SOLNI)): 0
- damage to plant, Stellaria media (STEME) (Stellaria media (STEME)): 7
- damage to plant, Amaranthus retroflexus (AMARE) [1]: 6
- damage to plant, Nasturtium officinale (NAAOF) [2]: 7

SMILES: Cc1noc(C)c1C(=O)Oc1c(-c2c(F)ccc(F)c2Cl)c(=O)n(C)c2nccnc12 [Compound C100]
- damage to plant, Solanum nigrum (SOLNI) (Solanum nigrum (SOLNI)): 5
- damage to plant, Stellaria media (STEME) (Stellaria media (STEME)): 3
- damage to plant, Amaranthus retroflexus (AMARE) [1]: 6
- damage to plant, Nasturtium officinale (NAAOF) [2]: 6

SMILES: CC(C)C(=O)Oc1c(-c2ccc(Cl)cc2Cl)c(=O)n(C)c2nccnc12 [Compound C63]
- damage to plant, Solanum nigrum (SOLNI) (Solanum nigrum (SOLNI)): 5
- damage to plant, Stellaria media (STEME) (Stellaria media (STEME)): 8
- damage to plant, Amaranthus retroflexus (AMARE) [1]: 5
- damage to plant, Nasturtium officinale (NAAOF) [2]: 9

SMILES: CCc1cc(C)cc(CC)c1-c1c(OC(=O)C(C)C)c2nccnc2n(C)c1=O [Compound C65]
- damage to plant, Solanum nigrum (SOLNI) (Solanum nigrum (SOLNI)): 3
- damage to plant, Stellaria media (STEME) (Stellaria media (STEME)): 6
- damage to plant, Amaranthus retroflexus (AMARE) [1]: 4
- damage to plant, Nasturtium officinale (NAAOF) [2]: 7

SMILES: Cn1c(=O)c(-c2c(F)ccc(F)c2Cl)c(OC(=O)C(C)(C)C)c2nccnc21 [Compound C105]
- damage to plant, Solanum nigrum (SOLNI) (Solanum nigrum (SOLNI)): 5
- damage to plant, Stellaria media (STEME) (Stellaria media (STEME)): 8
- damage to plant, Amaranthus retroflexus (AMARE) [1]: 5
- damage to plant, Nasturtium officinale (NAAOF) [2]: 6

SMILES: O=c1[nH]c2nccnc2c(O)c1-c1ccc(F)cc1Br [Compound A18]
- damage to plant, Solanum nigrum (SOLNI) (Solanum nigrum (SOLNI)): 6
- damage to plant, Stellaria media (STEME) (Stellaria media (STEME)): 4
- damage to plant, Amaranthus retroflexus (AMARE) [1]: 6
- damage to plant, Nasturtium officinale (NAAOF) [2]: 9

SMILES: COc1ccccc1-c1c(OC(=O)C(C)C)c2nccnc2n(C)c1=O [Compound C69]
- damage to plant, Solanum nigrum (SOLNI) (Solanum nigrum (SOLNI)): 0
- damage to plant, Stellaria media (STEME) (Stellaria media (STEME)): 6
- damage to plant, Amaranthus retroflexus (AMARE) [1]: 0
- damage to plant, Nasturtium officinale (NAAOF) [2]: 5

SMILES: CCn1c(=O)c(-c2c(C)cc(C)cc2C)c(OC(=O)C(C)C)c2nccnc21 [Compound C103]
- damage to plant, Solanum nigrum (SOLNI) (Solanum nigrum (SOLNI)): 7
- damage to plant, Stellaria media (STEME) (Stellaria media (STEME)): 7
- damage to plant, Amaranthus retroflexus (AMARE) [1]: 4
- damage to plant, Nasturtium officinale (NAAOF) [2]: 6

SMILES: CCn1c(=O)c(-c2c(Cl)cccc2Cl)c(OC(=O)C(C)(C)C)c2nccnc21 [Compound C41]
- damage to plant, Solanum nigrum (SOLNI) (Solanum nigrum (SOLNI)): 0
- damage to plant, Stellaria media (STEME) (Stellaria media (STEME)): 2
- damage to plant, Amaranthus retroflexus (AMARE) [1]: 2
- damage to plant, Nasturtium officinale (NAAOF) [2]: 2

SMILES: Cc1ccccc1-c1c(O)c2nccnc2[nH]c1=O [Compound A6]
- damage to plant, Solanum nigrum (SOLNI) (Solanum nigrum (SOLNI)): 5
- damage to plant, Stellaria media (STEME) (Stellaria media (STEME)): 0
- damage to plant, Amaranthus retroflexus (AMARE) [1]: 0
- damage to plant, Nasturtium officinale (NAAOF) [2]: 0

SMILES: O=c1[nH]c2nccnc2c(O)c1-c1cc(C(F)(F)F)ccc1Cl [Compound A34]
- damage to plant, Solanum nigrum (SOLNI) (Solanum nigrum (SOLNI)): 2
- damage to plant, Stellaria media (STEME) (Stellaria media (STEME)): 4
- damage to plant, Amaranthus retroflexus (AMARE) [1]: 6
- damage to plant, Nasturtium officinale (NAAOF) [2]: 4
